Measured values reported in US9326986B2, “Quinazolinone, quinolone and related analogs as sirtuin modulators” (GLAXOSMITHKLINE LLC, priority 2008, dated 2016).

Biological target: T1, SIRT1 (Homo sapiens, UniProt Q96EB6)
T1 sequence (Q96EB6 1-747): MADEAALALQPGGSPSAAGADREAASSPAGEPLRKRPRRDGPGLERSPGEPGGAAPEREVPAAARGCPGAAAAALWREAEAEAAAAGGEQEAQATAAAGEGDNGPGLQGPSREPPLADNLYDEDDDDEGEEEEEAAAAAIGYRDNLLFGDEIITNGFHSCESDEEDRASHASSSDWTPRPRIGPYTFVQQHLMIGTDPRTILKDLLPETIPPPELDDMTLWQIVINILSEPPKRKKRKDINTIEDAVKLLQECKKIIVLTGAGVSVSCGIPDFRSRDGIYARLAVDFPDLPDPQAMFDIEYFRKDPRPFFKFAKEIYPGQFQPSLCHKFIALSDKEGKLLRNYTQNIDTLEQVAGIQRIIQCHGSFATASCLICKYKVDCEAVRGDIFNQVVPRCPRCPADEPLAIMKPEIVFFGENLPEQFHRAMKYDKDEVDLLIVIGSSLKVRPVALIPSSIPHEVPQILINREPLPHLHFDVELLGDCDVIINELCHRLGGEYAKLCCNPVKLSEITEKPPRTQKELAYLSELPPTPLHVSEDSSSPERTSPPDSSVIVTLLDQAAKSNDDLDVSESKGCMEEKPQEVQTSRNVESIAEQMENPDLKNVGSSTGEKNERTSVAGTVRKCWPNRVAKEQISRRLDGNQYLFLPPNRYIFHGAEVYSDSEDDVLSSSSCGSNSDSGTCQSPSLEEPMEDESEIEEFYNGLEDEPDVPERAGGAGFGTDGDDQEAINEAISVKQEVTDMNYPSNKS
Test: Mass spectrometry based assay to identify modulators of SIRT1 activity (deacetylation of p53-based acetylated peptide)
Assay type: biochemical
Conditions: 10 nM SIRT1, 0.5 μM peptide substrate, 120 μM βNAD+, 25 minutes at 25° C.; for EC1.5 μM: SIRT1 activation

Row | SMILES | % Fold Act. (percent maximum fold activation) | EC1.5 μM
1 | Cn1c(-c2cccc(C(F)(F)F)c2)nc2c(NC(=O)c3cccc(CN4CCOCC4)c3)cccc2c1=O [Compound 338] | A (Fold activation>200%) | A (EC1.5<1.0 μM)
2 | Cn1c(-c2cccc(CN3CCCC3)c2)nc2c(C(=O)Nc3ccccn3)cccc2c1=O [Compound 276] | B (Fold Activation<200%) | B (EC1.5 1-25 μM)
3 | Cn1c(-c2cccc(S(C)(=O)=O)c2)nc2c(C(=O)Nc3ccccn3)cccc2c1=O [Compound 222] | A (Fold activation>200%) | B (EC1.5 1-25 μM)
4 | Cn1ccnc1-c1nc2c(NC(=O)c3cnccn3)cccc2c(=O)n1C [Compound 289] | B (Fold Activation<200%) | C (EC1.5>25 μM)
5 | Cn1c(-c2ccncn2)nc2c(C(=O)Nc3ccccn3)cccc2c1=O [Compound 257] | B (Fold Activation<200%) | C (EC1.5>25 μM)
6 | Cn1c(-c2cccc(C(F)(F)F)c2)nc2c(NC(=O)c3cccc(N4CCOCC4)c3)cccc2c1=O [Compound 330] | A (Fold activation>200%) | A (EC1.5<1.0 μM)
7 | O=C(Nc1cccc2c(=O)[nH]c(-c3ccccc3C(F)(F)F)nc12)c1cnccn1 [Compound 317] | A (Fold activation>200%) | A (EC1.5<1.0 μM)
8 | O=C(Nc1cccc2c(=O)[nH]c(-c3ccccc3OC(F)(F)F)nc12)c1cnccn1 [Compound 318] | A (Fold activation>200%) | A (EC1.5<1.0 μM)
9 | CN1CCCC1C(=O)Nc1cccc2c(=O)n(C)c(-c3cccc(C(F)(F)F)c3)nc12 (stereo not drawn) [Compound 331] | B (Fold Activation<200%) | B (EC1.5 1-25 μM)
10 | O=C(Nc1ccccn1)c1cccc2c(=O)[nH]c(-c3ccccc3C(F)F)nc12 [Compound 324] | A (Fold activation>200%) | A (EC1.5<1.0 μM)
11 | Cn1c(-c2cccc(C(F)(F)F)c2)nc2c(NC(=O)c3cocn3)cccc2c1=O [Compound 250] | B (Fold Activation<200%) | C (EC1.5>25 μM)
12 | Cn1c(-c2cccc(C(F)(F)F)c2)nc2c(C(=O)Nc3ccncn3)cccc2c1=O [Compound 303] | A (Fold activation>200%) | B (EC1.5 1-25 μM)
13 | Cn1c(C2CCC2)nc2c(C(=O)Nc3ccccn3)cccc2c1=O [Compound 224] | B (Fold Activation<200%) | C (EC1.5>25 μM)

Further lines, results first:

Row | % Fold Act. (percent maximum fold activation) | EC1.5 μM | SMILES
14 | A (Fold activation>200%) | A (EC1.5<1.0 μM) | O=C(Nc1nccs1)c1cccc2c(=O)cc(-c3cccc(OC(F)F)c3)[nH]c12 [Compound 428]
15 | A (Fold activation>200%) | A (EC1.5<1.0 μM) | Cn1c(-c2cccc(C(F)(F)F)c2)nc2c(C(=O)Nc3cccc(OC[C@H](O)CO)n3)cccc2c1=O [Compound 353]
16 | A (Fold activation>200%) | A (EC1.5<1.0 μM) | O=C(Nc1nccs1)c1cccc2c(=O)cc(-c3cccc(C(F)F)c3)[nH]c12 [Compound 431]
17 | A (Fold activation>200%) | A (EC1.5<1.0 μM) | O=C(Nc1nccs1)c1cccc2c(=O)cc(-c3ccccc3OC(F)F)[nH]c12 [Compound 436]
18 | A (Fold activation>200%) | A (EC1.5<1.0 μM) | O=C(Nc1cnccn1)c1cccc2c(=O)cc(-c3cccc(C(F)(F)F)c3)[nH]c12 [Compound 403]
19 | B (Fold Activation<200%) | B (EC1.5 1-25 μM) | O=C(NC1CCOC1=O)c1cccc2c(=O)cc(-c3cccc(C(F)(F)F)c3)[nH]c12 (stereo not drawn) [Compound 413]
20 | A (Fold activation>200%) | A (EC1.5<1.0 μM) | O=C(Nc1cccc2c(=O)cc(-c3cccc(C(F)(F)F)c3)[nH]c12)c1ccns1 [Compound 411]
21 | B (Fold Activation<200%) | C (EC1.5>25 μM) | Cn1c(-c2cccc(C(F)(F)F)c2)nc2c(NC(=O)C3CCC(=O)N3)cccc2c1=O (stereo not drawn) [Compound 339, N-(3-methyl-4-oxo-2-(3-(trifluoromethyl)phenyl)-3,4-dihydroquinazolin-8-yl)-5-oxopyrrolidine-2-carboxamide]
